Assay results reported in patent publication US20030109571A1, “Thromboxane ligands without blood clotting side effects” (ALLERGAN SALES, INC., priority 1993, published 2003).
Like-named read-outs stand apart in the source and are kept apart here. Marks after values point to notes of the source that are not given here.

Tests used:
[1] = Dog intraocular pressure, topical dosing, applanation pneumatonometry; type: in vivo; conditions: for Intraocular pressure change: dog
Experimental: (§1) The compounds were prepared at the said concentrations in a vehicle comprising 0.1% polysorbate 80 and 10 mM TRIS base. Dogs and monkeys were treated by administering 25 ul to the ocular surface, the contralateral eye received vehicle as a control. Intraocular pressure was measured by applanation pneumatonometry. Experiments were performed with dogs and monkeys. Dog intraocular pressure was measured immediately before drug administration and at 2, 4 and 6 hour thereafter. Additional studies in monkeys were performed over a 5 day period and drug was administered at times 0, 6, 24, 30, 48, 54, 72, 78, and 96 hours. Monkey intraocular pressure was recorded just before drug administration on each day and at the 2 and 4 hour time intervals between dosing.

HPRP = conditions: cited from earlier work; for Effect on HPRP: in words
[2] = target: T1, TP-receptor (vascular, TPVASC) (Rattus norvegicus, UniProt P34978); test: TP-vasoconstrictor activity: contraction of rings of isolated rat thoracic aorta, without or with SQ29,548; conditions: for Kb: antagonist
T1 construct: measured in vitro in isolated smooth muscle preparations; from tissue; host or cells: rings of isolated rat thoracic aorta
T1 sequence (P34978 1-341): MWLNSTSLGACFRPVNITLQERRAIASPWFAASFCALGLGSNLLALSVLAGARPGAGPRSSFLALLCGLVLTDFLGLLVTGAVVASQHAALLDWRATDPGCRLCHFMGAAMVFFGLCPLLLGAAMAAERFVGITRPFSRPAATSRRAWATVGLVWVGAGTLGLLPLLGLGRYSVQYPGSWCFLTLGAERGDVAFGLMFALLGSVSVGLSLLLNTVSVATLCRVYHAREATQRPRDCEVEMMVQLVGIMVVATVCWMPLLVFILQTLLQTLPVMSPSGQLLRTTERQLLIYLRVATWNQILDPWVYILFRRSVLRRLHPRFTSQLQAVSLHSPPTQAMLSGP
Experimental: (§2) Activity at different prostanoid receptors was measured in vitro in isolated smooth muscle preparations. FP-activity was measured as contraction of the isolated feline iris sphincter. EP1-activity was measured as contraction of the longitudinal smooth muscle of the isolated guinea pig ileum. EP3-activity was measured as inhibition of the twitch response induced by electrical field stimulation in the isolated guinea pig was deferens and as contraction of the longitudinal smooth muscle of the isolated chick ileum. TP-vasoconstrictor activity was measured as contraction of rings of the isolated rat thoracic aorta. Effects on platelets from healthy human donors were measured by incubating platelet-rich plasma with the compounds described herein. Inhibition of aggregation was determined by the ability of the compounds described herein to inhibit platelet aggregation in platelet-rich plasma induced by 20 μM ADP.
In addition, inhibition by the thromboxane A2-receptor antagonist SQ29,548 ([1S-[1α, 2α (5Z), 3α, 4α]]-7-[3-[[2-[phenylamino)carbonyl]-hydrazino]methyl]-7-oxabicyclo[2.2.1] hept-2-yl]-5-heptenoic acid) of vasoconstrictor activity was investigated.

Platelets (Human) = test: Platelet aggregation in platelet-rich plasma from healthy human donors; type: cell-based; conditions: for Kb: antagonist, read-out: KB Platelets aggreg
Experimental: as §2

FP prostanoid receptor = test: FP-activity: contraction of the isolated feline iris sphincter; conditions: concentration producing 50% of maximal response; read-out: EC50 at FP (Cat Iris)
Experimental: as §2

EP1 prostanoid receptor = test: EP1-activity: contraction of longitudinal smooth muscle of isolated guinea pig ileum
Experimental: as §2

EP3 prostanoid receptor [3] = test: EP3-activity: inhibition of electrically induced twitch response in isolated guinea pig vas deferens; conditions: read-out: EC50 at EP3(c) (Guinea Pig vas deferens)
Experimental: as §2

EP3 prostanoid receptor [4] = test: EP3-activity: contraction of longitudinal smooth muscle of isolated chick ileum; conditions: read-out: EC50 at EP3(d) (Chick Ileum)
Experimental: as §2

[5] = Monkey intraocular pressure, topical dosing over 5 days, applanation pneumatonometry; type: in vivo; parameters: Intraocular pressure change: unit not given beside the values; conditions: for Intraocular pressure change: monkey
Experimental: as §1

[6] = tested on: isolated perfused coronary arteries; conditions: at 1 μM; cited from earlier work
rat aorta = conditions: read-out: CD50 contraction of isolated rat aorta; cited from earlier work
vasculature = conditions: in words; cited from earlier work
platelets = conditions: in words; cited from earlier work
[7] = Table 7, read-out: EC50 (Rat Aorta)
[8] = Table 7, read-out: EC50 Platelets aggreg

CCCCCC(/C=C/C1C2CC(OC(=O)O2)C1C/C=C\CCCC(=O)OCc1ccccc1)OC(=O)C(C)(C)C (stereo not drawn) [Example 11, 7-16-carbobenzoxy-2-cis-hexenyl]-6-[3α-pivaloyloxy-1-trans-octenyl]-3-oxo-2,4-dioxobicyclo[3.2.11 octane]
Intraocular pressure change ([1]; dose 0.1%, 2 HR after dosing): −6.9** | Intraocular pressure change ([1]; dose 0.1%, 4 HR after dosing): −7.7** | Intraocular pressure change ([1]; dose 0.1%, 6 HR after dosing): −9.4** | Effect on HPRP (HPRP): no effect

[1S-[1α, 2β(Z), 3(1E, 3R*), 5α]]-7-[3-(3-hydroxy-1-octenyl)-6,6-dimethylbicyclo[3.1.1]hept-2-yl]-5-hepten-1-ol [Example 20]
EC50 [2, 7]: 929 nM

I-BOP [reference compound]
EC50 [2, 7]: 2 nM | EC50 (Platelets (Human); [8]): 214 nM

[1S-[1α, 2α(Z), 3β(1E, 3S*), 4α]]-7-[3-(3-hydroxy-4-(4-iodophenoxy)-1-butenyl]-7-oxabicyclo[2.2.1]hept-2-yl]-5-hepten-1-ol [Example 21]
EC50 [2, 7]: 0.4 nM

CCCCCC(O)/C=C/C1C2CC(OC(=O)O2)C1C/C=C\CCCC(=O)O (stereo not drawn) [Example 7]
EC50 (FP prostanoid receptor): 433 nM | EC50 (EP1 prostanoid receptor): 1240 nM | EC50 (EP3 prostanoid receptor [3]): 282 nM | EC50 (EP3 prostanoid receptor [4]): 245 nM | EC50 ([2]; Table 1, read-out: EC50 at TPVASC (Rat Aorta)): 0.23 nM | EC50 ([2]; absence of SQ29,548, read-out: EC50 at TPVASC-receptor, rat aorta): 2 nM | EC50 ([2]; presence of SQ29,548 (1 uM), read-out: EC50 at TPVASC-receptor, rat aorta): 325 nM | EC50 (Platelets (Human); Table 1, read-out: EC50 Platelets (Human) Aggregation): 24 nM | Agonist response, platelet aggregation (Platelets (Human); agonist alone at 3.3 × 10-8): −8.8 + 1.3 % of max response | Agonist response, platelet aggregation (Platelets (Human); agonist alone at 10-6): 103.0 ± 1.9 % of max response | Agonist response, platelet aggregation (Platelets (Human); agonist alone at 10-7): 100.5 ± 2.2 % of max response | Agonist response, platelet aggregation (Platelets (Human); agonist alone at 10-8): −7.9 + 1.3 % of max response | Agonist response, platelet aggregation (Platelets (Human); agonist alone at 10-9): 0 % of max response | Intraocular pressure change ([1]; dose 0.01%, 2 HR after dosing): −9.7** | Intraocular pressure change ([1]; dose 0.01%, 4 HR after dosing): −11.4** | Intraocular pressure change ([1]; dose 0.01%, 6 HR after dosing): −11.25** | Intraocular pressure change ([5]; dose 0.01%, 0 HR): 0 | Intraocular pressure change ([5]; dose 0.01%, 2 HR): −0.4 | Intraocular pressure change ([5]; dose 0.01%, 4 HR): 0 | Intraocular pressure change ([5]; dose 0.01%, 6 HR): 0 | Intraocular pressure change ([5]; dose 0.01%, 24 HR): −1.0 | Intraocular pressure change ([5]; dose 0.01%, 26 HR): 3.2 | Intraocular pressure change ([5]; dose 0.01%, 28 HR): −4.6 | Intraocular pressure change ([5]; dose 0.01%, 30 HR): −3.2 | Intraocular pressure change ([5]; dose 0.01%, 48 HR): −1.8 | Intraocular pressure change ([5]; dose 0.01%, 50 HR): −3.8 | Intraocular pressure change ([5]; dose 0.01%, 52 HR): −4.0 | Intraocular pressure change ([5]; dose 0.01%, 54 HR): −4.2 | Intraocular pressure change ([5]; dose 0.01%, 72 HR): 4.2 | Intraocular pressure change ([5]; dose 0.01%, 74 HR): −2.0 | Intraocular pressure change ([5]; dose 0.01%, 76 HR): −3.2 | Intraocular pressure change ([5]; dose 0.01%, 78 HR): −4.0 | Intraocular pressure change ([5]; dose 0.01%, 96 HR): −2.0 | Intraocular pressure change ([5]; dose 0.01%, 98 HR): −2.2 | Intraocular pressure change ([5]; dose 0.01%, 100 HR): −3.2 | Inhibition of vasoconstriction of isolated perfused cat coronary artery induced by carbocyclic TXA2 [6]: Inhibited vasoconstriction of isolated perfused cat coronary artery induced by carbocyclic TXA2 by 72% at 1 μM^11

9,11-dideoxy-9α,11α-methanoepoxy prostaglandin F2α [Example U-46619, reference compound]
EC50 (Platelets (Human); [8]): 320 nM | Agonist response, platelet aggregation (Platelets (Human); agonist alone at 3.3 × 10-7): 97.7 ± 1.6 % of max response | Agonist response, platelet aggregation (Platelets (Human); agonist alone at 10-6): 100.0 ± 1.9 % of max response | Agonist response, platelet aggregation (Platelets (Human); agonist alone at 10-7): −7.0 + 1.1 % of max response | Agonist response, platelet aggregation (Platelets (Human); agonist alone at 10-8): 0 % of max response | Intraocular pressure change ([1]; dose 0.1%, 2 HR after dosing): +0.86 | Intraocular pressure change ([1]; dose 0.1%, 4 HR after dosing): +1.75 | Intraocular pressure change ([1]; dose 0.1%, 6 HR after dosing): +2.7 | Effect on intraocular pressure ([1]; dogs, in words): increase in intraocular pressure | Intraocular pressure change ([5]; dose not given, 0 HR): 0 | Intraocular pressure change ([5]; dose not given, 2 HR): 2.0 | Intraocular pressure change ([5]; dose not given, 4 HR): 0.3 | Intraocular pressure change ([5]; dose not given, 6 HR): 1.0 | Effect on intraocular pressure ([5]; monkeys, in words): increase in intraocular pressure

CCCCCC(/C=C/C1C2CC(OC(=O)O2)C1C/C=C\CCCC(=O)O)OC(=O)C(C)(C)C (stereo not drawn) [Example 12, 7-[6-carboxy-2-cis-hexenyl]-6-[3α-pivaloyloxy-1-trans-octenyl]-3-oxo-2,4-dioxobicyclo [3.2.1] Octane]
Intraocular pressure change ([1]; dose 0.1%, 2 HR after dosing): −3.8** | Intraocular pressure change ([1]; dose 0.1%, 4 HR after dosing): −4.7** | Intraocular pressure change ([1]; dose 0.1%, 6 HR after dosing): −6.9** | Effect on HPRP (HPRP): no effect

[1S-[1α, 2α (5Z), 3α, 4α]]-7-[3-[[2-[phenylamino)carbonyl]-hydrazino]methyl]-7-oxabicyclo[2.2.1] hept-2-yl]-5-heptenoic acid [SQ29,548, reference compound]
Kb ([2]; Table 7): 1.6 nM | Kb (Platelets (Human); Table 7): 30.6 nM

Pinane thromboxane A2 [reference compound]
EC50 [2, 7]: 203 nM | EC50 (Platelets (Human); [8]): 950 nM

[1R-[1α, 4α, 5β(Z), 6α(1E, 3S*)-7-[6-(3-hydroxy-1-octenyl)-2-oxabicyclo[2.2.1]hept-5-yl]-5-hepten-1-ol [Example 19]
EC50 [2, 7]: 26 nM

CCCCC[C@H](O)/C=C/C1S[C@H]2CC(S2)[C@@H]1C/C=C\CCCC(=O)O (stereo partly drawn) [Example 13]
IC50 (HPRP; read-out: IC50 irreversible aggregation of HPRP): 4300 nM | EC50 (rat aorta): 0.7 nM

CCCCCC(/C=C/C1C2CC(OC(=O)O2)C1C/C=C\CCCC(=O)O)O[Si](C)(C)C(C)(C)C (stereo not drawn) [Example 16, 7-[6-carboxy-2-cis-hexenyl]-6-[3α-t-butyldimethylsilyloxy-1-trans-octenyl]-3-oxo-2,4-dioxobicyclo [3.2.1] octane]
Activity in contracting vascular smooth muscle ([2]; in words): pronounced activity | Ability to cause platelet aggregation (Platelets (Human); in words): no or minimal ability | Action on the vasculature (vasculature): weak vasoconstrictor activity | Action on platelets (platelets): No effect

[1S-[1α, 2α(5Z), 3α, 4α]]-7-[3-[2(phenylamino)carbonyl]-hydrazino]methyl]-7-oxabicyclo [2.2.1]hept-2-yl]-5-hepten-1-ol [Example 22]
Kb ([2]; Table 7): 18.2 nM | Kb (Platelets (Human); Table 7): 4500 nM
